The source of these data is ChEMBL document CHEMBL4184304, “Design and synthesis of novel and potent GPR119 agonists with a spirocyclic structure” (Bioorg Med Chem Lett, 2018).

Molecules are shown by their SMILES. pEC50, pIC50: −log10 of the molar value. ≈ marks a conversion by molar mass, not a printed value. Bounds are passed on as bounds.

The target of data set [1] is T1, Glucose-dependent insulinotropic receptor (Homo sapiens) (UniProt Q8TDV5).
T1 sequence (whole entry): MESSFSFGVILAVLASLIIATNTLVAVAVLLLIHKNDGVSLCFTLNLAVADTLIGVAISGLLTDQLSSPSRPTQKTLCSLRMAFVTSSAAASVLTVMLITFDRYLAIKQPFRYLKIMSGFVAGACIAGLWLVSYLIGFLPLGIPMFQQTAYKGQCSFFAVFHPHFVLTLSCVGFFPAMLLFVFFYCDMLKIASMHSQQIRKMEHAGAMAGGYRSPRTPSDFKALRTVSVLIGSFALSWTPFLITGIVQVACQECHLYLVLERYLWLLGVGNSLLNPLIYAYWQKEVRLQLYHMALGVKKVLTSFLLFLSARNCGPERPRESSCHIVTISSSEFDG
Briefly: Agonist activity at human GPR119 expressed in HEK293 cells assessed as increase in intracellular cAMP level after 30 mins relative to oleoylethanolamide. In kind it is functional, cell-based.

Data set [2] concerns the target T2, Glucose-dependent insulinotropic receptor (Homo sapiens, UniProt Q8TDV5).
T2 sequence (Q8TDV5 whole entry): T1 sequence (whole entry)
Briefly: Agonist activity at human GPR119 expressed in HEK293 cells assessed as increase in intracellular cAMP level after 30 mins. It is filed as functional, cell-based. (Cyclic AMP is a second messenger, typically raised through Gs and lowered through Gi signalling.)

A short description of data set [3]: Solubility in fed state simulated intestinal fluid. It is filed as physicochemical.
In the next data set the target is Cytochrome P450 2C9 (Homo sapiens, UniProt P11712). Briefly: Inhibition of CYP2C9 (unknown origin). In kind it is ADME.
Cytochrome P450 2C9, sequence (P11712 whole entry): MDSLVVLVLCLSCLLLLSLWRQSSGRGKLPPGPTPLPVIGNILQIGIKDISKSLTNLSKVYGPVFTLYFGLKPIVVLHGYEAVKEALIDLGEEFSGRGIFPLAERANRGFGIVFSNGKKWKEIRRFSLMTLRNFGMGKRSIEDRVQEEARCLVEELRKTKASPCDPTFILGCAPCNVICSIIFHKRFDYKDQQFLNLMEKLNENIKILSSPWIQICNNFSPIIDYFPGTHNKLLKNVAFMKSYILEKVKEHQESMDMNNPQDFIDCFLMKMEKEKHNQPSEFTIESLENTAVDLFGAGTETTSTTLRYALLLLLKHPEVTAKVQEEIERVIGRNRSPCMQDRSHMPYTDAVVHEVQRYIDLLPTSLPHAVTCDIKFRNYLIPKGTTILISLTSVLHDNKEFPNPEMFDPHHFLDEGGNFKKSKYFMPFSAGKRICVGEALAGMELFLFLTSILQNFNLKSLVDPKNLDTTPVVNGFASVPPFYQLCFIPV
The next data set has as its target T3, Cytochrome P450 2C8 (Homo sapiens, UniProt P10632).
T3 sequence (P10632 whole entry): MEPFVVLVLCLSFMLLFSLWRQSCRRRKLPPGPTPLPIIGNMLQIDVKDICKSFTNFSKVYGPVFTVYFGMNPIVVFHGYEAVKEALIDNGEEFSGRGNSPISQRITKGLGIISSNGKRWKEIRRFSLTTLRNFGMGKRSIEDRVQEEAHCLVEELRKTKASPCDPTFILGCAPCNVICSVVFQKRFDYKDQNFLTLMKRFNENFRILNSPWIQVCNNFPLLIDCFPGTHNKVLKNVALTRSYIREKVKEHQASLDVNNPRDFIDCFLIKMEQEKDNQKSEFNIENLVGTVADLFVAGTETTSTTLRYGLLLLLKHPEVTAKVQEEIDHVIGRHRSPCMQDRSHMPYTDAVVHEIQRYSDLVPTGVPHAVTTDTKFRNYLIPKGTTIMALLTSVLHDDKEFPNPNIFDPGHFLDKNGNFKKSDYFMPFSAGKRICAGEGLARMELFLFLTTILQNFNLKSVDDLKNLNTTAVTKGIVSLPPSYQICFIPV
Briefly: Inhibition of CYP2C8 (unknown origin). In kind it is ADME.

The target of the next data set is Cytochrome P450 2C19 (Homo sapiens, UniProt P33261). Briefly: Inhibition of CYP2C19 (unknown origin). In kind it is ADME.
Cytochrome P450 2C19, sequence (P33261 whole entry): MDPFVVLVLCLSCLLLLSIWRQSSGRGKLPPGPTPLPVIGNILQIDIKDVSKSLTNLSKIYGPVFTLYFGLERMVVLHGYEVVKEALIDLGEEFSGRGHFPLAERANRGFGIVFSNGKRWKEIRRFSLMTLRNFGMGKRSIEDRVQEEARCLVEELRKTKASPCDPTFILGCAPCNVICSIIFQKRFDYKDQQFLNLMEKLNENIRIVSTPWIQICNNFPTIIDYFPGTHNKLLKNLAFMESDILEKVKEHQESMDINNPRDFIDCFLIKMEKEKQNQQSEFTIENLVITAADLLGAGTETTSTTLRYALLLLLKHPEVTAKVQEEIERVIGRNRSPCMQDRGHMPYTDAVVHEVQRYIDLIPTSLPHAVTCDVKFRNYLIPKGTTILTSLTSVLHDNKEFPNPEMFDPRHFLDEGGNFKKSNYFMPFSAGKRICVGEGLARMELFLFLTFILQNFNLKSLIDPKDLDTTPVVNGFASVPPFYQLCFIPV
Data set [4] deals with Rattus norvegicus. Briefly: Antidiabetic activity in Sprague-Dawley rat assessed as glucose concentration-dependent insulin secretion by measuring reduction in blood glucose AUC at 1 mg/kg, po pretreated for 30 mins followed by glucose-challenge measured up to 120 mins by ipGTT relative to control. It is filed as functional. Further details: scale not given: the % may be the effect or the level left.

For the next data set, the target named is Cytochrome P450 3A4 (Homo sapiens, UniProt P08684). Briefly: Inhibition of CYP3A4 (unknown origin). It is filed as ADME.
Cytochrome P450 3A4, sequence (P08684 whole entry): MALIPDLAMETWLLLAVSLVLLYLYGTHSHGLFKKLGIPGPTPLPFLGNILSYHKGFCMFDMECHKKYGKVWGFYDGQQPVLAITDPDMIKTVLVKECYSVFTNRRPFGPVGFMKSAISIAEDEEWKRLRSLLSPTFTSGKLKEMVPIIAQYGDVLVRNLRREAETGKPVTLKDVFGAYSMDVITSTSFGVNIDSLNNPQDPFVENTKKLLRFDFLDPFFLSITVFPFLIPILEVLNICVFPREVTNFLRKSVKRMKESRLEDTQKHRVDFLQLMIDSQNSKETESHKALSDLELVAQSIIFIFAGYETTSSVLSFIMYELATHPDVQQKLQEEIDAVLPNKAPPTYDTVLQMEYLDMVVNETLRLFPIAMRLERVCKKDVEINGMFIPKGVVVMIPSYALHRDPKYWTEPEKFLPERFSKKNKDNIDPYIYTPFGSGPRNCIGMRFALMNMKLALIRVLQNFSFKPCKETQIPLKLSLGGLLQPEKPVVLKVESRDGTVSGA
Data set [5] has as its system Rattus norvegicus. Briefly: Antidiabetic activity in Sprague-Dawley rat assessed as glucose concentration-dependent insulin secretion by measuring reduction in blood glucose AUC at 0.3 mg/kg, po pretreated for 30 mins followed by glucose-challenge measured up to 120 mins by ipGTT relative to control. In kind it is functional. More on the design: scale not given: the % may be the effect or the level left.

Another data set concerns the target T4, Cytochrome P450 1A2 (Homo sapiens, UniProt P05177).
T4 sequence (P05177 whole entry): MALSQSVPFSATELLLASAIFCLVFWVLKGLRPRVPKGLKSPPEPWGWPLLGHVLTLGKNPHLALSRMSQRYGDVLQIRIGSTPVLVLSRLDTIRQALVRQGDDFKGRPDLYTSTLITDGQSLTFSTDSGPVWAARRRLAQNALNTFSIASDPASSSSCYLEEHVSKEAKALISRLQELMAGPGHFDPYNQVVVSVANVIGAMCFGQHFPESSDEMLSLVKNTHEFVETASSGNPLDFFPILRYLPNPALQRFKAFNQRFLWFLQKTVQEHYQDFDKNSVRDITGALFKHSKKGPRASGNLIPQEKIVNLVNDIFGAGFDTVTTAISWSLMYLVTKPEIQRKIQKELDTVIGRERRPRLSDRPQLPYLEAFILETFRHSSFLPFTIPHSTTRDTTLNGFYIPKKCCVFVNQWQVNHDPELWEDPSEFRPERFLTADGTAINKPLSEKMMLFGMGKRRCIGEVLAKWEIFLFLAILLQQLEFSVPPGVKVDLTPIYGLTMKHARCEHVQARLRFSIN
Briefly: Inhibition of CYP1A2 (unknown origin). In kind it is ADME.

The next data set addresses Cytochrome P450 2D6 (Homo sapiens, UniProt P10635). Briefly: Inhibition of CYP2D6 (unknown origin). In kind it is ADME.

Cytochrome P450 2D6, sequence (P10635 whole entry): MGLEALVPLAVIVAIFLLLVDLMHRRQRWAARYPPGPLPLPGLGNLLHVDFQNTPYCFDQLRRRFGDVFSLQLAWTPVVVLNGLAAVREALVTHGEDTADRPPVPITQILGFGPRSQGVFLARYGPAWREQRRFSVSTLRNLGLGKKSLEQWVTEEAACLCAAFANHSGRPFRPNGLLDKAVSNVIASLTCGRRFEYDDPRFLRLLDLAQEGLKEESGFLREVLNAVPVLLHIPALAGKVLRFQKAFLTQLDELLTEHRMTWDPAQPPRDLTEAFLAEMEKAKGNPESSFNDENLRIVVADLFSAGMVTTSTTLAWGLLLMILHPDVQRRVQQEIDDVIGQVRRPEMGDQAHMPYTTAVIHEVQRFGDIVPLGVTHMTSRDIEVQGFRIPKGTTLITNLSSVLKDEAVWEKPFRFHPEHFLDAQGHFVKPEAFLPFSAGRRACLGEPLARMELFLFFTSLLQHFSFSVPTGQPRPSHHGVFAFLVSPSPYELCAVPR

For the compound `CN(C)C(=O)c1ccc(OCCCCC[C@H]2CC[C@@]3(CCCCO3)CC2)cc1`, the Activity in data set [1] turned out to be 96%. Further, the pEC50 (as a rule, −log10 of the EC50, conventionally taken in molar units) in data set [2] is 7.68.
For the compound `CN(C)C(=O)c1ccc(OCCCCC[C@H]2CC[C@@]3(CC2)CC(C)(C)CCO3)cc1`, the Activity in data set [1] is 110%. Moreover, the pEC50 in data set [2] was 8.15.
Regarding `CN(C)C(=O)c1ccc(OCCCCC[C@H]2CC[C@]3(CCCO3)CC2)cc1`, the Activity in data set [1] came to 84%. The negative logarithm of the EC50 (pEC50) in data set [2] was 7.02.
Turning to `CC(C)(C)OC(=O)N1CCC(CCCCCOc2ccc(S(C)(=O)=O)cc2)CC1`, the solubility – broadly, the dissolved amount per volume that the medium holds – in [3] was 15.9 µM (≈ 6.77 µg/mL). Also, the Activity in data set [1] was 93%. Also, the negative logarithm of the EC50 (pEC50) in data set [2] was 7.85.
On to `CN(C)C(=O)c1ccc(OCCCCC[C@H]2CC[C@@]3(CC2)CC(C)(C)CO3)cc1`, for which the Activity in data set [1] was 99%. The pEC50 in data set [2] was 8.40.
With `CN(C)C(=O)c1ccc(OCCCCCC2CCC3(CC2)OCCCO3)cc1`, the Activity in [1] amounted to 96%. The pEC50 in data set [2] was 7.54.
The corresponding values for `CC(C)(C)OC(=O)N1CCC(CCCOc2ccc(S(C)(=O)=O)cc2)CC1` are 106% and 6.45.
The matching figures for `CC(C)(C)OC(=O)N1CCC(CCCCOc2ccc(S(C)(=O)=O)cc2)CC1`: 100% and 6.68.
`CN(C)C(=O)c1ccc(OCCCCC[C@H]2CC[C@]3(CCC(C)(C)O3)CC2)cc1`: the Activity in data set [1] was determined as 64%. In data set [2], the pEC50 is 6.29.
The matching figures for `CN(C)C(=O)c1ccc(OCCCCCC2CCC3(CC2)OCCO3)cc1`: 92% and 7.06.
As for `CC(C)OC(=O)N1CCC(CCCCCOc2ccc(C(=O)N(C)C)cc2)CC1`, the pIC50 against Cytochrome P450 2C9, against Cytochrome P450 2C8 and against Cytochrome P450 2C19 was greater than 5.00 in each case. For the same compound, in [3], the solubility was 222 µM (≈ 89.7 µg/mL). For the same compound, the Activity in [1] amounted to 102%. Further, the pEC50 in data set [2] was 8.00.
As for `CC(C)(C)OC(=O)N1CCC(CCCCCCOc2ccc(S(C)(=O)=O)cc2)CC1`, in data set [1], the Activity was 72%. Further, in [2], the pEC50 was 7.11.
For the compound `CN(C)C(=O)c1ccc(OCCCCC[C@H]2CC[C@]3(CC2)COC(C)(C)C3)cc1`, the Activity in the data set with Rattus norvegicus [4] was found to be 33%; with Rattus norvegicus [5], 14%; in data set [1] it was 104%. The pIC50 against Cytochrome P450 3A4, at Cytochrome P450 2C9, at Cytochrome P450 2C8, against Cytochrome P450 1A2, at Cytochrome P450 2C19 and against Cytochrome P450 2D6 was less than 5.00 throughout. Besides, in data set [3], the concentration in solution (solubility) came to 442 µM (≈ 177 µg/mL). In addition, the pEC50 in data set [2] was 8.40.
Consider `CN(C)C(=O)c1ccc(OCCCCCC2CCC3(CCCCC3)CC2)cc1`, for which the Activity in data set [1] is 91%. Moreover, the negative-log EC50 (pEC50) in [2] was 7.57.
As to `CN(C)C(=O)c1ccc(OCCCCC[C@H]2CC[C@@]3(CCCO3)CC2)cc1`, the Activity in data set [1] was found to be 89%. For the same compound, the pEC50 in [2] was 6.88.
The corresponding values for `CN(C)C(=O)c1ccc(OCCCCC[C@H]2CC[C@]3(CCCCO3)CC2)cc1` are 96% and 7.44.
In [3], `CN(C)C(=O)c1ccc(OCCCCCC2CCN(C(=O)OC(C)(C)C)CC2)cc1` gave a solubility of 74.2 µM (≈ 31.1 µg/mL). For the same compound, in data set [1], the Activity was determined as 97%. In addition, the pEC50 in [2] is 8.30.
